One data set deals with MV4-11 cells. Description: MV4-11 Cell Cytotoxicity Assay (CellTiter-Blue, 72 h). The following applies: Homo sapiens, MV4-11; MV-4-11 cells. Type of data set: cell-based, human. The method in brief:
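Viability read-out: CellTiter-Blue, 1 h, fluorescence 560/590 nm. Preceded by 72 h exposure (37° C, 5% CO2) to twofold dilution series from 50 μM, triplicate, 0.5% DMSO vehicle, applied 24 h after plating.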

For data set [1], the system named is normal human fibroblast (NHF) cells. Description: NHF Cell Cytotoxicity Assay (CellTiter-Blue, 72 h), off-target effects. Type of data set: cell-based. The following applies: Homo sapiens, Fibroblast; pooled NHF cells. The method in brief: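 Normal human fibroblasts (1×10^4/well, 10% FBS medium) were treated after 24 h with inhibitor at 0.097656-50 μM for 72 h at 37° C. Viability was read by CellTiter-Blue fluorescence (560/590 nm), normalized to DMSO control, and IC50 obtained from a variable-slope log(inhibitor)-response fit of four replicates.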
Background: The colour change of resazurin is a common sign of viable cells or microbes.

A further data set concerns glutathione (GSH). Description: Reactivity Profiling with Glutathione (GSH), half-life by HPLC. To be noted: 5 mM glutathione (GSH) in IMDM with 10% FBS.

As usually defined, the IC50 is the concentration at which inhibition is half-maximal. Read a high IC50 as weaker potency. For orientation: half-life means the time in which the quantity being followed falls by half. A higher half-life goes with slow decline. As for `CC(C)(C)c1cc(CN(C(=O)CN(Cc2ccccc2F)S(=O)(=O)c2c(F)c(F)c(F)c(F)c2F)c2ccc(C(=O)O)cc2OC2CC2)cc(C2CC2)c1` [Compound 1062, 4-(N-(3-(tert-butyl)-5-cyclopropylbenzyl)-2-(N-(2-fluorobenzyl)-(2,3,4,5,6-pentafluoro-phenyl)sulfonamido)acetamido)-3-cyclopropoxybenzoic acid], the IC50 in the data set on MV4-11 cells fell in the range of 0.01 to 316 nM; in data set [1] it was 10000 to 20000 nM. Besides, in the data set on glutathione (GSH), the half-life at 25 μM lay in the range of 9.23 to 1670 h.

As to `O=C(O)c1ccc(N(Cc2cc(C3CC3)cc(C3CC3)c2)C(=O)CN(Cc2ccc(F)cc2Cl)S(=O)(=O)c2c(F)c(F)c(F)c(F)c2F)c(N2CCOCC2)c1` [Compound 1241, 4-(2-(N-(2-chloro-4-fluorobenzyl)-(2,3,4,5,6-pentafluorophenyl)sulfon-amido)-N-(3,5-dicyclopropylbenzyl)acetamido)-3-morpholinobenzoic acid], the IC50 with MV4-11 cells lay in the range of 0.01 to 316 nM; in data set [1], 1 to 10000 nM. The half-life at 25 μM in the data set on glutathione (GSH) fell in the range of 4.12 to 9.23 h.

Take `CC(C)(C)c1cc(CN(C(=O)CN(Cc2cnccc2C(F)(F)F)S(=O)(=O)c2c(F)c(F)c(F)c(F)c2F)c2ccc(C(=O)O)cc2C2CC2)cc(C2CC2)c1` [Compound 1186, 4-(N-(3-(tert-butyl)-5-cyclopropylbenzyl)-2-(N-((4-(trifluoromethyl)pyridin-3-yl)methyl)-(2,3,4,5,6-pentafluoro-phenyl)sulfonamido)acetamido)-3-cyclopropylbenzoic acid]: the IC50 lay in the range of 0.01 to 316 nM with MV4-11 cells and 1 to 10000 nM in data set [1]. In addition, in the data set on glutathione (GSH), the half-life at 25 μM was in the range of 2.37 to 4.12 h.

On to `O=C(O)c1ccc(N(Cc2cc(C3CC3)cc(N3CCCC3)c2)C(=O)CN(Cc2cnccc2C(F)(F)F)S(=O)(=O)c2c(F)c(F)c(F)c(F)c2F)c(OC2CCCC2)c1` [Compound 1209, 3-(cyclopentyloxy)-4-(N-(3-cyclopropyl-5-(pyrrolidin-1-yl)benzyl)-2-(N-((4-(trifluoromethyl)pyridin-3-yl)methyl)-(2,3,4,5,6-pentafluoro-phenyl)sulfonamido)acetamido)benzoic acid], for which the IC50 in the data set with MV4-11 cells lay within 0.01 to 316 nM; in data set [1], 10000 to 20000 nM. The half-life at 25 μM with glutathione (GSH) was 9.23 to 1670 h.

With `CC(C)(C)c1cc(CN(C(=O)CN(Cc2ccc(F)cc2Cl)S(=O)(=O)c2c(F)c(F)c(F)c(F)c2F)c2ccc(C(=O)O)cc2OC2CC2)cc(C2CC2)c1` [Compound 1189, 4-(N-(3-(tert-butyl)-5-cyclopropylbenzyl)-2-(N-(2-chloro-4-fluorobenzyl)-(2,3,4,5,6-pentafluorophenyl)sulfon-amido)acetamido)-3-cyclopropoxybenzoic acid], the IC50 lay in the range of 0.01 to 316 nM in the data set with MV4-11 cells and 10000 to 20000 nM in data set [1]. Besides, the half-life at 25 μM in the data set with glutathione (GSH) was in the range of 9.23 to 1670 h.

`COc1cc(C(=O)O)ccc1N(Cc1cc(C2CC2)cc(C2CC2)c1)C(=O)CN(Cc1ccc(F)cc1Cl)S(=O)(=O)c1c(F)c(F)c(F)c(F)c1F` [Compound 1166, 4-(2-(N-(2-chloro-4-fluorobenzyl)-(2,3,4,5,6-pentafluorophenyl)sulfon-amido)-N-(3,5-dicyclopropylbenzyl)acetamido)-3-methoxybenzoic acid]: the IC50 fell in the range of 0.01 to 316 nM with MV4-11 cells and 1 to 10000 nM in data set [1]. Also, the half-life at 25 μM in the data set on glutathione (GSH) fell in the range of 2.37 to 4.12 h.

As for `CC(C)(C)c1cc(CN(C(=O)CN(Cc2c(F)cc(F)cc2F)S(=O)(=O)c2c(F)c(F)c(F)c(F)c2F)c2ccc(C(=O)O)cc2C2CC2)cc(C2CC2)c1` [Compound 1123, 4-(N-(3-(tert-butyl)-5-cyclopropylbenzyl)-2-(N-(2,4,6-trifluorobenzyl)-(2,3,4,5,6-pentafluoro-phenyl)sulfonamido)acetamido)-3-cyclopropylbenzoic acid], the IC50 was in the range of 0.01 to 316 nM with MV4-11 cells and 1 to 10000 nM in data set [1]. The half-life at 25 μM in the data set on glutathione (GSH) was in the range of 9.23 to 1670 h.

Regarding `Cc1cc(C(=O)O)ccc1N(Cc1cc(C2CC2)cc(C2CC2)c1)C(=O)CN(Cc1ccccc1C(F)(F)F)S(=O)(=O)c1c(F)c(F)c(F)c(F)c1F` [Compound 1217, 4-(N-(3,5-dicyclopropylbenzyl)-2-(N-(2-(trifluoromethyl)benzyl)-(2,3,4,5,6-pentafluoro-phenyl)sulfonamido)acetamido)-3-methylbenzoic acid], the IC50 with MV4-11 cells was in the range of 0.01 to 316 nM; in data set [1] it was 20000 to 30000 nM. For the same compound, the half-life at 25 μM in the data set on glutathione (GSH) was in the range of 4.12 to 9.23 h.

For the compound `O=C(O)c1ccc(N(Cc2cc(C3CC3)cc(C3CC3)c2)C(=O)CN(Cc2ncccc2C(F)(F)F)S(=O)(=O)c2c(F)c(F)c(F)c(F)c2F)c(OC2CC2)c1` [Compound 1164, 3-cyclopropoxy-4-(N-(3,5-dicyclopropylbenzyl)-2-(N-((3-(trifluoromethyl)pyridin-2-yl)methyl)-(2,3,4,5,6-pentafluoro-phenyl)sulfonamido)acetamido)benzoic acid], the IC50 fell in the range of 316 to 1000 nM in the data set with MV4-11 cells and 20000 to 30000 nM in data set [1]. In the data set on glutathione (GSH), the half-life at 25 μM is 4.12 to 9.23 h.

Take `CC(C)Oc1cc(C(=O)O)ccc1N(Cc1cc(C2CC2)cc(C(C)(C)C)c1)C(=O)CN(Cc1ccc(F)cc1Cl)S(=O)(=O)c1c(F)c(F)c(F)c(F)c1F` [Compound 1228, 4-(N-(3-(tert-butyl)-5-cyclopropylbenzyl)-2-(N-(2-chloro-4-fluorobenzyl)-(2,3,4,5,6-pentafluorophenyl)sulfon-amido)acetamido)-3-isopropoxybenzoic acid]: the IC50 fell in the range of 0.01 to 316 nM in the data set on MV4-11 cells and 20000 to 30000 nM in data set [1]. Further, in the data set on glutathione (GSH), the half-life at 25 μM lay within 9.23 to 1670 h.

Regarding `CC(C)(C)c1cc(CN(C(=O)CN(Cc2ccccc2F)S(=O)(=O)c2c(F)c(F)c(F)c(F)c2F)c2ccc(C(=O)O)cc2OC2CCCC2)cc(C2CC2)c1` [Compound 1094, 4-(N-(3-(tert-butyl)-5-cyclopropylbenzyl)-2-(N-(2-fluorobenzyl)-(2,3,4,5,6-pentafluoro-phenyl)sulfonamido)acetamido)-3-(cyclopentyloxy)benzoic acid], the IC50 in the data set with MV4-11 cells was in the range of 0.01 to 316 nM; in data set [1], 20000 to 30000 nM. This compound also registered a half-life at 25 μM in the data set with glutathione (GSH) of 9.23 to 1670 h.

For `CCOc1cc(C(=O)O)cc(F)c1N(Cc1cc(C2CC2)cc(C2CC2)c1)C(=O)CN(Cc1ccccc1C#N)S(=O)(=O)c1c(F)c(F)c(F)c(F)c1F` [Compound 1274, 4-(2-((N-(2-cyanobenzyl)-2,3,4,5,6-pentafluorophenyl)sulfonamido)-N-(3,5-dicyclopropylbenzyl)acetamido)-3-ethoxy-5-fluorobenzoic acid], the IC50 is 0.01 to 316 nM in the data set with MV4-11 cells and 10000 to 20000 nM in data set [1]. This compound yielded a half-life at 25 μM in the data set with glutathione (GSH) of 2.37 to 4.12 h.

As to `Cc1cc(C(=O)O)ccc1N(Cc1cc(C2CC2)cc(C2CC2)c1)C(=O)CN(Cc1ccc(F)cc1Cl)S(=O)(=O)c1c(F)c(F)c(F)c(F)c1F` [Compound 1219, 4-(2-(N-(2-chloro-4-fluorobenzyl)-(2,3,4,5,6-pentafluorophenyl)sulfon-amido)-N-(3,5-dicyclopropylbenzyl)acetamido)-3-methylbenzoic acid], the IC50 with MV4-11 cells lay in the range of 0.01 to 316 nM; in data set [1], 1 to 10000 nM. The compound also gave a half-life at 25 μM in the data set on glutathione (GSH) of 2.37 to 4.12 h.

Regarding `O=C(O)c1ccc(N(Cc2cc(C3CC3)cc(N3CCCC3)c2)C(=O)CN(Cc2c(F)cc(F)cc2F)S(=O)(=O)c2c(F)c(F)c(F)c(F)c2F)c(OC2CC2)c1` [Compound 1191, 3-cyclopropoxy-4-(N-(3-cyclopropyl-5-(pyrrolidin-1-yl)benzyl)-2-(N-(2,4,6-trifluorobenzyl)-(2,3,4,5,6-pentafluoro-phenyl)sulfonamido)acetamido)benzoic acid], the IC50 lay in the range of 316 to 1000 nM in the data set with MV4-11 cells and 1 to 10000 nM in data set [1]. For the same compound, the half-life at 25 μM in the data set on glutathione (GSH) is 9.23 to 1670 h.

The values are drawn from patent publication US20230159445A1, “STAT INHIBITORY COMPOUNDS AND COMPOSITIONS” (JANPIX LIMITED, priority 2020, published 2023).
